Entries after “also recorded” stand apart in the source; their conditions may differ. Like-named read-outs stand apart in the source and are kept apart here.
Key:
[1] = tested on: VSV-G pseudotyped HIV-1 vector (wild-type, pNL4-3LucR+E-); experiment: microbe, parasite or virus in culture; format: cell-based; settings: for EC50 / IC50: Human immunodeficiency virus 1, HEK-293T
[2] = biological target: T1, HIV-1 reverse transcriptase (Human immunodeficiency virus type 1 group M subtype B, UniProt P04585); experiment: in vitro purified HIV-1 reverse transcriptase assay; format: biochemical
T1 construct: HIV-1 RT includes a p66/p51 heterodimer; purchased Ambion, Austin, Tex
Description: Anti-HIV-1 reverse transcriptase activity of the disclosed inhibitor compounds was assayed in vitro using an assay adapted from King et al. (Antimicrob. Agents Chemother. 46(6): 1640-46; 2002) and Telesnitsky et al. (Methods Enzymol. 262:347-62; 1995). HIV-1 RT (0.5 units; Ambion, Austin, Tex.) was incubated with various concentrations of compounds for 5 minutes at room temperature. Then a template-primer mixture was added to reach final concentration of 5 μg/mL oligo(dT)20, 10 μg/mL poly(rA), 1.25 μM [α-32P]dTTP and 10 μM dTTP. The mixture was incubated at 37° C. for 60 minutes. Aliquots of the reaction were spotted on DEAE paper, washed twice with 2×SSC buffer (300 mM NaCl, 30 mM sodium citrate) and once with 95% ethanol, dried and exposed to PhosphorImager screen (Molecular Dynamics, Sunnyvale, Calif.). The screens were scanned by FLA-5100 instrument (Fujifilm Life Science, Stamford, Conn.) and the amount of incorporated labeled phosphate was used to quantify the RT activity. The best fitted curves and IC50 values were calculated using Prism 4 software (GraphPad Software, San Diego). […] For the in vitro studies, a triphosphate form of AZT (EMD Biosciences, San Diego, Calif.) was used.

[3] = tested on: HIV-1 reverse transcription viral DNA products; experiment: real-time PCR quantitation of viral DNA products; format: cell-based; settings: for effect on synthesis of early and late viral DNA products: 5 μM, 24 hours post infection, FIG. 18
Description: Real-time quantitation of viral DNA was accomplished using PCR as follows. The total cellular DNA was harvested 24 hours post infection with the AccuPrep genomic DNA extraction kit (Bioneer Life Science Corp., Rockville, Md.). The amount of viral DNA products was quantified by real-time PCR on ABI Prism 7900 Sequence Detection System (Applied Biosystems, Foster City, Calif.) with the following primers and probes: early HIV-1 reverse transcripts with primers ert2f, ert2r, probe ERT2 (Munk et al., Proc. Natl. Acad. Sci. 99(21):13843-48; 2002, herein incorporated by reference as to the sequence of the primers), late HIV-1 reverse transcripts with primers MH531, MH532, probe LRT-P, 2-LTR circular DNA with primers MHH535, MH536, probe MH603 (Butler et al., Nat. Med. 7(5):631-4; 2001, herein incorporated by reference as to the sequence of the primers and probes). To control the number of cell equivalent DNA in the samples, a single-copy locus in the porphobilinogen deaminase (PBGD) gene (Buckman et al., J. Virol. 77(2):1469-80; 2003) was amplified with primers PBGD1 (5′-[…]; SEQ ID NO: 1) and PBGD2 (5′-[…]; SEQ ID NO: 2) and probe PBGD-P (5′-VIC-[…]-MGBNFQ; SEQ ID NO: 3).
The quantitative real-time PCR-based approach described above was used to determine whether the presently disclosed compounds, such as 08-006-F2, block HIV infection at a step prior to the synthesis of late viral DNA products. Using different specific primers and probes, the amount of early viral DNA products, late viral DNA products, and 2LTR-containing circular forms of viral DNA, were quantified 24 hours post infection. […] As shown in F1G. 18, the effect of 5 μM compound 08-006-F2 and 5 μM AZT on the synthesis of viral DNA products was measured by quantitative real-time PCR. Quantitation of early and late HIV-1 reverse transcription products is illustrated, as is quantitation of 2-LTR containing circular DNA forms (the circular DNA forms serve as a surrogate marker for nuclear translocation of viral DNA). […]

[4] = tested on: cells that express luciferase from established HIV-1 proviral DNA; experiment: effect on provirus gene expression; format: cell-based; settings: data not shown
From the text: It also was investigated whether 08-006-F2 exerts an additional effect on provirus gene expression.

[5] = tested on: HIV-1 vector with RT mutation Y181C; experiment: microbe, parasite or virus in culture; format: cell-based; settings: Human immunodeficiency virus 1
[6] = tested on: HIV-1 vector with RT mutation V106A; experiment: microbe, parasite or virus in culture; format: cell-based; settings: Human immunodeficiency virus 1
[7] = tested on: HIV-1 vector with RT mutation K103N; experiment: microbe, parasite or virus in culture; format: cell-based; settings: Human immunodeficiency virus 1
[8] = cytotoxicity, CellTiter-Glo (ATP content) 24 hours after treatment; settings: human, mock-infected 293T cells
[9] = tested on: HIV-1 vector with RT mutation Y188L; experiment: microbe, parasite or virus in culture; format: cell-based; settings: Human immunodeficiency virus 1
[10] = tested on: wild-type and NNRTI mutant viruses (Y188L, Y181C, V106A, K103N); experiment: cell based infectivity assay, wild type and four mutant vectors together; parameters: species or system HIV-1; settings: FIGS. 22 and 24
[11] = tested on: HIV reverse transcriptase having a mutation at codon 181 and 227; settings: strains with RT mutation at codon 181 (cysteine) and 227 (leucine); U.S. Pat. No. 7,037,644; cited from earlier work
[12] = tested on: HIV reverse transcriptase having a mutation at codon 106 and 181 and 227; settings: strains with RT mutation at codon 106 (alanine), 181 (cysteine) and 227 (leucine); U.S. Pat. No. 7,037,644; cited from earlier work
[13] = tested on: HIV reverse transcriptase having a mutation at codons 103 alone or in combination with a mutation at codon 188; settings: strains with RT mutation at codon 103 (asparagine) alone or with 188 (leucine); U.S. Pat. No. 7,037,644; cited from earlier work

Structure (SMILES) | EC50 [1] | effect on synthesis of early and late viral DNA products [3] | EC50 [5] | EC50 [6] | EC50 [7] | EC50 [9] | change in drug susceptibility [11] | change in drug susceptibility [12] | change in drug susceptibility [13] | also measured
Clc1ccccc1-c1nc2ccccn2c1NC1CCCCC1 [08-006-F2] | 185 nM | blocked the synthesis of early and late viral DNA | 1070 nM | 764 nM | 2360 nM |  |  |  |  | combined effect with AZT on HIV-1 infectivity (isobologram) [1]: synergistic effects; also recorded: synergistic inhibition; IC50 [1]: 800 nM; IC50 ([1]; read-out: IC50 inhibition of HIV-1 vector infectivity): 170 nM; IC50 ([2]; FIG. 16 dose-response curve, read-out: IC50 inhibition of purified HIV-1 reverse transcriptase activity): 2800 nM; combined effect with AZT on purified HIV-1 reverse transcriptase (isobologram) ([2]; combination with AZT triphosphate, 50% and 90% fractional inhibitory concentrations, FIGS. 17A, 17B): synergistic effect; also recorded: synergistic inhibition; inhibition of HIV-1 late RT product formation ([3]; dose response, FIG. 19): dose-dependent inhibition; effect on provirus gene expression [4]: no significant influence; CC50 at 24 h [8]: 35000 nM
Cc1cn([C@H]2C[C@H](N=[N+]=[N-])[C@@H](CO)O2)c(=O)[nH]c1=O [AZT, zidovudine] | 7.7 nM | block at the reverse transcription step | 6.12 nM | 9.14 nM | 8.76 nM | 9.35 nM |  |  |  | inhibition of wild-type and NNRTI-resistant RT mutant viruses (in words) [10]: efficiently inhibited
Cc1ccnc2c1NC(=O)c1cccnc1N2C1CC1 [NVP, nevirapine] | 27.4 nM |  | 2000 nM | 888 nM | 977 nM | 279000 nM |  |  |  | 
CC(C)Nc1cccnc1N1CCN(C(=O)c2cc3cc(NS(C)(=O)=O)ccc3[nH]2)CC1 [delavirdine] |  |  |  |  |  |  | increase | moderate decrease | substantial decrease | 
O=C1Nc2ccc(Cl)cc2[C@@](C#CC2CC2)(C(F)(F)F)O1 [efavirenz] |  |  |  |  |  |  | increase | slight decrease | substantial decrease | 
Cc1ccnc2c1NC(=O)c1cccnc1N2C1CC1 [nevirapine, Nevirapine] |  |  |  |  |  |  | significant decrease | substantial decrease | substantial decrease | 

Source: patent US20100292232A1, “NON-NUCLEOSIDE REVERSE TRANSCRIPTASE INHIBITORS” (priority 2007, published 2010)
